Laboratory results from patent EP0628545A1, “13,14-Dihydro-PGF2BETA and its isopropyl ester” (ONO PHARMACEUTICAL CO., LTD., priority 1993, dated 1994).

Tests used:
[1] = tested on: intraocular pressure; experiment: Reducing effect of intraocular pressure after instillation into the rabbit eye (Experiment 1); type: in vivo, Japanese White rabbits; details: for Δ IOP, Reducing Effects of Intraocular Pressure: 50 µl instilled into left eye, vehicle-corrected, average of three samples; for Change in I.O.P.: area over 0 mmHg minus area under 0 mmHg of the IOP-time graph, 0-6 hr, minus = reduction
Protocol: For example, in a standard laboratory test the following data shown in Table 1 and 2 and in the accompanying Figure 1 were obtained. Average of the value of three samples are shown as each data. In the Figure reduction in intraocular pressure is plotted against time after administration for the compound of the invention and three comparison compounds.
Male Japanese White rabbits weighing about 3.0 kg were lightly held and the intraocular pressure was measured by Applanation Pneumatonograph after corneal anesthesia with instillation of 0.4% oxybuprocaine hydrochloride solution.
A 0.1% solution of a test compound was dissolved in vehicle which contains 2.5% conc. glycerol and 2.0% Polysorbate 80 in sterile purified water. The test solution at volume of 50 µl was instilled into left eye of each rabbit and the right eye remained untreated. As a control, the vehicle was instilled into left eye in a control group. Δ IOP (mmHg), which is an index of intraocular pressure-reducing effect, were calculated using below formula. IOP = (IOPt - IOP₀) - (IOPvt - IOPv0 ) [formula] IOPt : IOP at t hr after instillation of a test solution IOPvt : IOP at t hr after instillation of vehicle IOP₀ : IOP just before instillation of a test solution IOPv0 : IOP just before instillation of vehicle
Taking into consideration the continuous time of occurrence of the reduction effect and the intensity of the effect, the superiority of the compound of the present invention to the compared compound is clear. On the graph 1, the squares i.e. reducing effect of intraocular pressure, were calculated: That is, squares under 0 mmHg put minus and squares over 0 mmHg put plus, and the total squares are calculated and the values are shown in the Table 2.
On the graph of the intraocular pressure in course of time, area of the square (mmHg x hr) in elevation i.e. square over 0 mmHg and area of the square (mmHg x hr) in the reduction i.e. square under 0 mmHg were calculated and from the value of the former was subtracted the one of the latter. The minus-resulted value means reduction of intraocular pressure and the plus-resulted value means elevation of intraocular pressure.

[2] = Detection of compound and metabolite in eye tissue homogenates by liquid chromatography-mass spectrum after eye drop administration (Experiment 2); type: in vivo, Japanese White rabbits; details: 1 Hr after the last administration; for detection in the homogenates of aqueous humor, cornea or iris/ciliary body: eye drop solution of Example 1 three times every 5 mins in saccus conjunctivae
Protocol: Japanese White rabbits weighing 3.0 kg were used. Eye drop solution of Example 1 was administered three times every 5 mins in saccus conjunctivae. 1 Hr after the last administration, aqueous humor, cornea and iris/ciliary body were collected and homogenized respectively. The homogenates were measured by liquid chromatography-Mass spectrum.

[3] = 0 hr after administration (baseline), 0.1% solution
[4] = 1 hr after administration, 0.1% solution
[5] = 2 hr after administration, 0.1% solution
[6] = 4 hr after administration, 0.1% solution
[7] = 6 hr after administration, 0.1% solution

Row | Compound | Δ IOP, Reducing Effects of Intraocular Pressure [1, 3] | continued elevation of the intraocular pressure ([1]; 0.1% solution) | initial elevation of the intraocular pressure ([1]; 0.1% solution) | time after administration at which the reducing effect appeared ([1]; 0.1% solution) | Δ IOP, Reducing Effects of Intraocular Pressure [1, 4] | Δ IOP, Reducing Effects of Intraocular Pressure [1, 5] | Δ IOP, Reducing Effects of Intraocular Pressure [1, 6] | Δ IOP, Reducing Effects of Intraocular Pressure [1, 7] | Change in I.O.P. ([1]; 0.1% solution) | maximum reduction of IOP ([1]; 0.1% solution) | bulbar and palpebral conjunctival hyperemia ([1]; after instillation of 0.1% solution) | activity (reduction of intraocular pressure) reached ([1]; at 2 hrs after administration, same level maintained till 6 hrs) | hydrolysis on cornea ([2]; eye drop solution of Example 1) | detection in the homogenates of aqueous humor, cornea or iris/ciliary body [2]
1 | CCCCC[C@H](O)/C=C/[C@@H]1[C@@H](C/C=C\CCCC(=O)OC(C)C)[C@@H](O)C[C@@H]1O [Compared compound 1, 11-epi-PGF2α isopropyl ester] | 0 mm Hg | continuous elevation till 6 hrs | showed initial elevation | > 6 h | 3.5 mm Hg | 1.5 mm Hg | 1.5 mm Hg | 0.2 mm Hg | 8.95 mmHg x hr |  |  |  |  | 
2 | CCCCC[C@H](O)/C=C/[C@@H]1[C@@H](C/C=C\CCCC(=O)OC(C)C)[C@@H](O)C[C@H]1O [Compared compound 2, PGF2α isopropyl ester] | 0 mm Hg |  | extremely strong initial elevation | ~4 h | 13.7 mm Hg | 3.7 mm Hg | -1 mm Hg | -5.8 mm Hg | 11.36 mmHg x hr |  |  |  |  | 
3 | CCCCC[C@H](O)CC[C@@H]1[C@@H](C/C=C\CCCC(=O)OC)[C@@H](O)C[C@H]1O [Compared compound 3, 13,14-dihydro-PGF2α methyl ester] | 0 mm Hg |  | showed initial elevation | ~4 h | 3.3 mm Hg | -1.3 mm Hg | -0.7 mm Hg | -4.3 mm Hg | -4.35 mmHg x hr |  |  |  |  | 
4 | CCCCC[C@H](O)CC[C@@H]1[C@@H](C/C=C\CCCC(=O)OC(C)C)[C@H](O)C[C@H]1O [Example 1, 13,14-dihydro-PGF2β isopropyl ester] | 0 mm Hg |  | did not show initial elevation | 1 h | -1.8 mm Hg | -5.5 mm Hg | -5.5 mm Hg | -5.3 mm Hg | -26.35 mmHg x hr | 5.5 mmHg | not observed | 5.5 mmHg | hydrolysed into the compound of Example 2 | not detected
5 | CCCCC[C@H](O)CC[C@@H]1[C@@H](C/C=C\CCCC(=O)O)[C@H](O)C[C@H]1O [Example 2, 13,14-dihydro-prostaglandin F2β] |  |  |  |  |  |  |  |  |  |  |  |  |  | detected
